Data taken from patent US20210052473A1, “COMPOSITION FOR REMOVING ALDEHYDE-BASED ODORS AND REACTIVE OXYGEN SPECIES” (Osteon Co. Ltd., priority 2019, published 2021).

Assay: Deodorization performance: anisidine value (p-AV) by ultraviolet spectrometry after reaction with 0.2% 2-nonenal isooctane standard solution
Settings: 20 ml 0.2% 2-nonenal isooctane solution (v/v) stirred 30 minutes with 20 ml composition; lower value = less aldehyde; Table 5
Protocol: At this time, 0.2% 2-nonenal isooctane solution (v/v) was used as a standard solution to determine the deodorizing performance. 2-Nonenal is a typical aldehyde compound generated by the oxidation of unsaturated fatty acids in human skin. […] The deodorizing performance of the deodorizing substances was determined by measuring the anisidine values (p-AV).

| SMILES | Anisidine value (p-AV) |
| --- | --- |
| Cc1c[nH]c(=O)[nH]c1=O [Comparative Example 14, Thymine] | 36.54 |
| O=S([O-])S(=O)(=O)[O-].[Na+].[Na+] [Comparative Example 4, Sodium metabisulfite] | 34.48 |
| O=S([O-])O.[Li+] [Comparative Example 3, Lithium bisulfite] | 34.65 |
| NCCCC[C@H](N)C(=O)O [Comparative Example 17, Lysine] | 34.56 |
| O=S([O-])S(=O)(=O)[O-].[K+].[K+] [Comparative Example 5, Potassium metabisulfite] | 33.10 |
| O=S([O-])S(=O)(=O)[O-].[Li+].[Li+] [Comparative Example 7, Lithium metabisulfite] | 34.27 |
| O=S([O-])S(=O)(=O)[O-].[Na+].[Na+] [Comparative Example 6, Sodium metabisulfite] | 35.36 |
| Nc1nc2nc[nH]c2c(=O)[nH]1 [Comparative Example 16, Guanine] | 38.45 |
| Nc1ccnc(=O)[nH]1 [Comparative Example 13, Cytosine] | 37.21 |
| O=S([O-])S(=O)[O-].[Li+].[Li+] [Comparative Example 10, Lithium hydrosulfite] | 33.98 |
| O=S([O-])S(=O)[O-].[Na+].[Na+] [Comparative Example 8, Sodium hydrosulfite] | 34.39 |
| N[C@@H](Cc1c[nH]cn1)C(=O)O [Comparative Example 19, Histidine] | 38.09 |
| O=S([O-])O.[K+] [Comparative Example 2, Potassium bisulfite] | 33.23 |
| O=S([O-])S(=O)[O-].[K+].[K+] [Comparative Example 9, Potassium hydrosulfite] | 34.10 |
| O=S([O-])O.[Na+] [Comparative Example 1, Sodium bisulfite] | 33.28 |
| N=C(N)NCCC[C@H](N)C(=O)O [Comparative Example 18, Arginine] | 38.41 |
| Nc1ncnc2nc[nH]c12 [Comparative Example 15, Adenine] | 36.23 |
